Where a SMILES comes first, the peptide text is derived from it. [ ]: non-standard residue; d: D form.
Assays:
Type in all cases: functional
[1] = system: SK-MEL-5; test: Growth inhibition of human SK-MEL-5 cells
[2] = system: SF-295; test: Growth inhibition of human SF295 cells
[3] = system: DU-145; test: Growth inhibition of human DU145 cells
[4] = system: NCI-H460; test: Growth inhibition of human NCI-H460 cells
[5] = system: P388; test: Growth inhibition of mouse P388 cells
[6] = system: OVCAR-3; test: Growth inhibition of human OVCAR-3 cells
[7] = system: KM-20L2; test: Growth inhibition of human KM20L2 cells

Measured: GI50

CC[C@H](C)[C@@H]1NC(=O)[C@H](C)NC(=O)[C@H](CCSC)NC(=O)[C@H](C)NC(=O)[C@@H](CC(N)=O)NC(=O)[C@H](Cc2ccccc2)NC(=O)[C@@H]2CCCN2C1=O [(R)-ASN-PHAKELLISTATIN 5] (cyclo(AIPF[dN]AM))
> 10 µg/mL: all assays above

CC[C@H](C)[C@@H]1NC(=O)[C@H](C)NC(=O)[C@H](CCSC)NC(=O)[C@H](C)NC(=O)[C@H](CC(N)=O)NC(=O)[C@H](Cc2ccccc2)NC(=O)[C@@H]2CCCN2C1=O [(S)-ASN-PHAKELLISTATIN 5] (cyclo(AIPFNAM))
> 10 µg/mL: all assays above

Source: ChEMBL document CHEMBL1155652, “Synthesis of the marine sponge cycloheptapeptide phakellistatin 5(1)” (2000)
